The NIST ThermoML archive (doi:10.1021/je034087q)

Assay: xn = mol fraction of the nth substance listed
Conditions: 323.15 K, Fluid (supercritical or subcritical phases)

CCCCC [pentane] + O=C=O
Conditions	mass density [kg/m3]
2770 kPa, x2 = 0.214	612
3730 kPa, x2 = 0.36	633
3800 kPa, x2 = 0.214	617
4510 kPa, x2 = 0.36	635
5380 kPa, x2 = 0.36	636
5920 kPa, x2 = 0.214	623
6240 kPa, x2 = 0.36	640
6870 kPa, x2 = 0.671	707
7170 kPa, x2 = 0.36	643
7390 kPa, x2 = 0.791	655
7500 kPa, x2 = 0.671	713
7530 kPa, x2 = 0.214	627
7770 kPa, x2 = 0.791	663
8020 kPa, x2 = 0.87	577
8150 kPa, x2 = 0.36	645
8150 kPa, x2 = 0.87	584
8220 kPa, x2 = 0.916	454
8230 kPa, x2 = 0.916	458
8240 kPa, x2 = 0.916	460
8240 kPa, x2 = 0.939	352
8260 kPa, x2 = 0.87	590
8270 kPa, x2 = 0.916	468
8270 kPa, x2 = 0.939	356
8280 kPa, x2 = 0.791	670
8290 kPa, x2 = 0.939	358
8310 kPa, x2 = 0.939	361
8320 kPa, x2 = 0.916	475
8330 kPa, x2 = 0.939	363
8370 kPa, x2 = 0.671	719
8370 kPa, x2 = 0.916	483
8380 kPa, x2 = 0.939	368
8390 kPa, x2 = 0.901	515
8410 kPa, x2 = 0.916	491
8420 kPa, x2 = 0.87	597
8420 kPa, x2 = 0.939	375
8430 kPa, x2 = 0.901	520
8450 kPa, x2 = 0.916	499
8460 kPa, x2 = 0.901	524
8460 kPa, x2 = 0.939	380
8500 kPa, x2 = 0.901	529
8500 kPa, x2 = 0.916	508
8500 kPa, x2 = 0.939	386
8530 kPa, x2 = 0.901	533
8540 kPa, x2 = 0.939	393
8550 kPa, x2 = 0.87	602
8570 kPa, x2 = 0.901	538
8570 kPa, x2 = 0.916	517
8570 kPa, x2 = 0.939	399
8620 kPa, x2 = 0.901	542
8620 kPa, x2 = 0.939	406
8650 kPa, x2 = 0.916	527
8660 kPa, x2 = 0.939	413
8670 kPa, x2 = 0.901	548
8700 kPa, x2 = 0.939	420
8710 kPa, x2 = 0.87	610
8710 kPa, x2 = 0.901	552
8710 kPa, x2 = 0.916	536
8740 kPa, x2 = 0.939	428
8760 kPa, x2 = 0.901	558
8810 kPa, x2 = 0.916	546
8810 kPa, x2 = 0.939	436
8830 kPa, x2 = 0.901	562
8850 kPa, x2 = 0.939	444
8860 kPa, x2 = 0.791	681
8890 kPa, x2 = 0.901	568
8890 kPa, x2 = 0.939	453
8920 kPa, x2 = 0.87	619
8930 kPa, x2 = 0.916	556
8950 kPa, x2 = 0.939	461
8980 kPa, x2 = 0.901	573
9010 kPa, x2 = 0.939	470
9050 kPa, x2 = 0.901	579
9070 kPa, x2 = 0.916	568
9070 kPa, x2 = 0.939	479
9120 kPa, x2 = 0.87	624
9140 kPa, x2 = 0.901	583
9140 kPa, x2 = 0.939	489
9210 kPa, x2 = 0.939	500
9230 kPa, x2 = 0.901	590
9240 kPa, x2 = 0.916	579
9280 kPa, x2 = 0.36	647
9300 kPa, x2 = 0.939	511
9350 kPa, x2 = 0.901	595
